Data from US8431525B2, “Coelenteramide analogs” (JNC Corporation, priority 2009, dated 2013).

Key:
[1] = Fluorescence spectrum and fluorescence quantum yield of CTMD analogs at 750 nM (Example 1); format: physicochemical; conditions: for Fluorescence quantum yield (PB) / λmax (PB)/nm: 67 mM phosphate buffer pH 7.4, 750 nM; for Fluorescence quantum yield (PB) / λmax (PB)/nm / λmax (MeOH)/nm / Fluorescence quantum yield (MeOH): 25° C., excited at 330 nm; for Fluorescence quantum yield (PB) / Fluorescence quantum yield (MeOH): relative to quinine sulfate 0.55; for λmax (PB)/nm / λmax (MeOH)/nm: fluorescence emission; for λmax (MeOH)/nm / Fluorescence quantum yield (MeOH): methanol, 750 nM; for fluorescence properties compared with known CTMD (c-4) or h-CTMD (c-13): from TABLE 1
Experimental: The fluorescence quantum yield of each CTMD analog synthesized was determined by the following procedure. The fluorescence spectrum was measured at 25° C. using a spectrofluorometer FP-6500 of JASCO (JASCO Corp., Tokyo). Specifically, the CTMD analog was dissolved in methanol (MeOH) or in 67 mM phosphate buffer (PB) (pH 7.4) at a final concentration of 750 nM using a quartz cell (light path length of 10 mm). Measurement was performed 3 times at the excited wavelength of 330 nm, emission/excitation band width of 3 nm, response of 0.5 second and scanning rate of 100 nm/min. The average was taken as the fluorescence spectrum of the compound. The fluorescence quantum yield was determined after the spectrum was corrected.
Quinine sulfate was used as a standard for determining the fluorescence quantum yield. After quinine sulfate (Wako Pure Chemical Industries) was dissolved in 0.1N sulfuric acid aqueous solution, measurement was performed at the excitation light of 366 nm under the conditions for fluorescence measurements described above. The relative fluorescence quantum yield (fluorescence intensity) of the compound was calculated relative to the quantum yield of quinine sulfate as being 0.55.

Compound | Fluorescence quantum yield (PB) [1] | λmax (PB)/nm [1] | λmax (MeOH)/nm [1] | Fluorescence quantum yield (MeOH) [1] | melting point | fluorescence properties compared with known CTMD (c-4) or h-CTMD (c-13) [1]
O=C(Cc1ccccc1)Nc1ncc(-c2ccc(O)cc2)nc1Cc1ccccc1 [c-13, 3-Benzyl-5-(4-hydroxyphenyl)-2-(phenylacetylamino)pyrazine] | 0.003 | 399 nm | 424.5 nm | 0.010 | 259 to 261 °C | –
O=S(=O)(Cc1ccccc1)Nc1ncc(-c2ccc(O)cc2)nc1Cc1ccccc1 [c-15, 3-Benzyl-2-benzylsulfonylamino-5-(4-hydroxyphenyl)pyrazine] | 0.137 | 435.5 nm | 429.5 nm | 0.066 | 144 to 147 °C (dec.) | different fluorescence properties
COc1ccc(-c2cnc(NC(=O)Cc3ccccc3)c(Cc3ccccc3)n2)cc1 [c-16, 3-Benzyl-5-(4-methoxyphenyl)-2-(phenylacetylamino)pyrazine] | 0.181 | 450 nm | 415 nm | 0.342 | 197.5 to 202 °C | –
COc1ccc(-c2cnc(NC(=S)Cc3ccccc3)c(Cc3ccccc3)n2)cc1 [c-17, 3-Benzyl-5-(4-methoxyphenyl)-2-(phenylthioacetylamino)pyrazine] | 0.003 | 445 nm | 417.5 nm | 0.003 | 45 to 47 °C | different fluorescence properties
COc1ccc(-c2cnc(NS(=O)(=O)Cc3ccccc3)c(Cc3ccccc3)n2)cc1 [c-18, 3-Benzyl-2-benzylsulfonylamino-5-(4-methoxyphenyl)pyrazine] | 0.147 | 429 nm | 416.5 nm | 0.293 | 213 to 215 °C | different fluorescence properties
CC(=O)Oc1ccc(-c2cnc(N)c(Cc3ccccc3)n2)cc1 [c-19, 5-(4-Acetoxyphenyl)-2-amino-3-benzylpyrazine] | – | – | – | – | 183.5 to 185.5 °C | –
CC(=O)Oc1ccc(-c2cnc(N(S(=O)(=O)Cc3ccccc3)S(=O)(=O)Cc3ccccc3)c(Cc3ccccc3)n2)cc1 [c-20, 5-(4-Acetoxyphenyl)-3-benzyl-2-bis(benzylsulfonyl)aminopyrazine] | 0.026 | 420 nm | 399.5 nm | 0.185 | 84 to 86.5 °C | different fluorescence properties
COc1ccc(-c2cnc(N(S(=O)(=O)Cc3ccccc3)S(=O)(=O)Cc3ccccc3)c(Cc3ccccc3)n2)cc1 [c-21, 3-Benzyl-2-bis(benzylsulfonyl)amino-5-(4-methoxyphenyl)pyrazine] | 0.059 | 421.5 nm | 417 nm | 0.303 | 78 to 80 °C | different fluorescence properties
COc1ccc(-c2cnc(NC(C)=O)c(Cc3ccccc3)n2)cc1 [c-24, 2-Acetylamino-3-benzyl-5-(4-methoxyphenyl)pyrazine] | 0.199 | 450.5 nm | 415.5 nm | 0.345 | – | –
CC(=O)Oc1ccc(CC(=O)Nc2ncc(-c3ccc(OC(C)=O)cc3)nc2Cc2ccccc2)cc1 [c-29, 5-(4-Acetoxyphenyl)-2-(4-acetoxyphenyl)acetylamino-3-benzylpyrazine] | 0.029 | 386.5 nm | 376.5 nm | 0.086 | 225 to 227 °C | –
CC(=O)Oc1ccc(-c2cnc(NC(=O)Cc3ccccc3)c(Cc3ccccc3)n2)cc1 [c-30, 5-(4-Acetoxyphenyl)-3-benzyl-2-(phenylacetylamino)pyrazine] | 0.040 | 391 nm | 373.5 nm | 0.008 | 228 to 231 °C | –
CC(=O)Oc1ccc(-c2cnc(NS(=O)(=O)Cc3ccccc3)c(Cc3ccccc3)n2)cc1 [c-32, 5-(4-Acetoxyphenyl)-3-benzyl-2-(benzylsulfonylamino)pyrazine] | 0.239 | 420 nm | 404 nm | 0.234 | 240 to 241 °C | different fluorescence properties
CC(=O)Nc1ncc(-c2ccc(OC(C)=O)cc2)nc1Cc1ccccc1 [c-33, 5-(4-Acetoxyphenyl)-2-acetylamino-3-benzylpyrazine] | 0.154 | 384 nm | 375 nm | 0.085 | 215.5 to 217 °C (dec.) | –
CS(=O)(=O)Nc1ncc(-c2ccc(O)cc2)nc1Cc1ccccc1 [c-34, 3-Benzyl-5-(4-hydroxyphenyl)-2-(methanesulfonylamino)pyrazine] | 0.096 | 437 nm | 429 nm | 0.056 | – | different fluorescence properties
Cc1ccc(S(=O)(=O)Nc2ncc(-c3ccc(O)cc3)nc2Cc2ccccc2)cc1 [c-35, 3-Benzyl-5-(4-hydroxyphenyl)-2-[(4-methylphenyl)sulfonylamino]pyrazine] | 0.107 | 435 nm | 430.5 nm | 0.069 | 181 to 182.5 °C | different fluorescence properties
CC(=O)Oc1ccc(-c2cnc(N(S(=O)(=O)Cc3ccc(I)cc3)S(=O)(=O)Cc3ccc(I)cc3)c(Cc3ccccc3)n2)cc1 [c-46, 5-(4-Acetoxyphenyl)-3-benzyl-2-bis(4-iodobenzylsulfonyl)aminopyrazine] | – | – | – | – | 166 to 167 °C | –
